# Measurements as given in ChEMBL document CHEMBL6092220 (J Med Chem, 2024).
# Calls of active or inactive are those of the source. No cut-off for these calls is given here.
# Legend:
# [1] = Antitumor activity against human MOLM16 cells xenografted in mouse assessed as tumor regression at 25 mg/kg, iv administered twice daily; assay type: functional, MOLM-16
# [2] = Drug concentration in female CB17 SCID mouse tumor at 5 mg/kg, iv measured at 48 hrs by LC-MS/MS analysis; assay type: ADME, organism-based, Neoplasm; settings: read-out: Ct
# [3] = target: Protein cereblon/Signal transducer and activator of transcription 1-alpha/beta (Homo sapiens, UniProt P42224+Q96SW2); experiment: PROTAC activity at STAT1/CRBN in human Pfeiffer cells transfected with STAT3 K658R mutant assessed as reduction in STAT1 level upto 40 uM incubated for 20 hrs by Western blot analysis; assay type: cell-based
# [4] = target: T1, Protein cereblon/Signal transducer and activator of transcription 3 (Homo sapiens, UniProt P40763+Q96SW2); experiment: PROTAC activity at his-SUMO-tagged STAT3 (127 to 688 residues)/CRBN in human HeLa cells assessed as induction of STAT3 degradation incubated for 24 hrs by TECAN SPARK microplate reader analysis relative to control; assay type: cell-based
# [5] = Apparent volume of distribution in ICR mouse at 5 mg/kg, iv; assay type: ADME, organism-based; settings: in vivo, read-out: Vz
# [6] = Antitumor activity against human MOLM16 cells xenografted in mouse assessed as tumor regression at 25 mg/kg, iv; assay type: functional, MOLM-16
# [7] = target: T2, Protein cereblon/Signal transducer and activator of transcription 3 (Mus musculus) (UniProt P42227+Q8C7D2); experiment: In-vivo PROTAC activity at STAT3/CRBN in female CB17 SCID mouse assessed as STAT3 depletion liver at 5 mg/kg, iv measured upto 72 hrs by immunobloting analysis; assay type: functional, organism-based
# [8] = target: T2, Protein cereblon/Signal transducer and activator of transcription 3 (Mus musculus); experiment: In-vivo PROTAC activity at STAT3/CRBN in female CB17 SCID mouse assessed as reduction STAT3 level liver at 10 mg/kg, iv measured at 48 hrs by Western blot analysis; assay type: functional, organism-based; parameters: scale not given: the % may be the effect or the level left
# [9] = target: T2, Protein cereblon/Signal transducer and activator of transcription 3 (Mus musculus); experiment: In-vivo PROTAC activity at STAT3/CRBN in female CB17 SCID mouse assessed as STAT3 depletion spleen at 5 mg/kg, iv measured upto 72 hrs by immunobloting analysis; assay type: functional, organism-based
# [10] = Stability in dog plasma assessed as parent compound remaining at […]; assay type: ADME, cell-free, Canis lupus familiaris; settings: read-out: Stability
# [11] = target: T2, Protein cereblon/Signal transducer and activator of transcription 3 (Mus musculus); experiment: In-vivo PROTAC activity at STAT3/CRBN in female CB17 SCID mouse assessed as reduction STAT3 level spleen at 10 mg/kg, iv measured at 48 hrs by Western blot analysis; assay type: functional, organism-based; parameters: scale not given: the % may be the effect or the level left
# [12] = Antiproliferative activity against human MOLM16 cells assessed as cell growth inhibition incubated for 4 days by celltiter-glo assay; assay type: functional, cell-based, MOLM-16; settings: MOLM16, 96 h
# [13] = Stability in rat Hepatocyte assessed as half life; assay type: ADME, cell-based; settings: hepatocytes
# [14] = Drug concentration in female CB17 SCID mouse spleen at 5 mg/kg, iv measured at 3 hrs by LC-MS/MS analysis; assay type: ADME, organism-based; settings: read-out: Ct
# [15] = target: T1, Protein cereblon/Signal transducer and activator of transcription 3; experiment: PROTAC activity at his-SUMO-tagged STAT3 (127 to 688 residues)/CRBN in human PBMC cells assessed as reduction in STAT3 level at 0.1 to 4000 nM incubated for 20 hrs by Western blot analysis relative to control; assay type: cell-based; settings: dose 0.1-4000 nM
# [16] = target: T1, Protein cereblon/Signal transducer and activator of transcription 3; experiment: PROTAC activity at his-SUMO-tagged STAT3 (127 to 688 residues)/CRBN in human HeLa cells assessed as induction of STAT3 degradation incubated for 24 hrs by TECAN SPARK microplate reader analysis; assay type: cell-based
# [17] = target: T1, Protein cereblon/Signal transducer and activator of transcription 3; experiment: PROTAC activity at his-SUMO-tagged STAT3 (127 to 688 residues)/CRBN in human PBMC cells assessed as reduction in STAT3 level upto 40 uM incubated for 20 hrs by Western blot analysis relative to control; assay type: cell-based; parameters: scale not given: the % may be the effect or the level left
# [18] = Cmax in Sprague-Dawley rat at 5 mg/kg, iv; assay type: ADME, organism-based; settings: in vivo
smiles,measurement,setting,value
COC(=O)N1CC[C@H]2CC[C@@H](C(=O)N[C@@H](CCC(N)=O)C(=O)N[C@@H](Cc3ccc(F)c(F)c3)C(=O)N3CCC(CCC#Cc4cccc5c4CN(C4CCC(=O)NC4=O)C5=O)CC3)N2C(=O)[C@@H](NC(=O)c2cc3cc(C(F)(F)P(=O)(O)O)ccc3s2)C1 (stereo partly drawn),Activity,[1],100%
same,concentration at 48 h,[2],1110 ng/g
same,Activity,[3],inactive
same,Emax,[4],84%
same,Vd,[5],0.1 L/kg
same,Activity,[6],100%
same,Activity,[7],Active
same,Activity,[8],> 90%
same,Activity,[9],Active
same,remaining at 2 h,[10],89%
same,Activity,[11],> 90%
same,IC50,[12],0.038 µM
same,t1/2,[13],> 2 h
same,concentration at 3 h,[14],1920 ng/g
same,Emax,[15],> 95%
same,DC50,[16],0.5 µM
same,Activity,[17],> 95%
same,Cmax,[18],82.6 µg/mL
